Literature values in patent US4318905A, “Nonapeptide and decapeptide agonists of luteinizing hormone releasing hormone containing heterocyclic amino acid residues” (Syntex (U.S.A.) Inc., priority 1980, dated 1982).

Settings: Gly in the 6-position replaced by a D-amino acid

Substance	activity relative to LH-RH
[D-Phe^6 ]LHRH	increased activity
[D-Ala^6 ]LHRH	increased activity
[D-Trp^6 ]LHRH	increased activity
